From the supplement of paper PMC10307832

Assays:
Assay in all cases: relative viability (nuclei count vs DMSO), 5 days (fraction); higher = more cells survive
A-427 = tested on: A-427
How it was run: (§1)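 Lung cancer cell lines, seeded in 1536-well plates, were treated the following day by pin tool with a single drug or with five library-drug doses (not always all listed) in √10 steps on top of a fixed anchor-drug dose. Cells were fixed and nuclei stained in one step after 5 days, and nuclei were counted. Relative viability is the nuclei count for treated wells divided by that for vehicle wells, reported as medians of duplicate plates.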

COR-L 105 = tested on: COR-L 105
How it was run: as §1

H3255 = tested on: H3255
How it was run: as §1

HCC-44 = tested on: HCC-44
How it was run: as §1

HCC-827 = tested on: HCC-827
How it was run: as §1

LOU-NH91 = tested on: LOU-NH91
How it was run: as §1

LXF-289 = tested on: LXF-289
How it was run: as §1

NCI-H1792 = tested on: NCI-H1792
How it was run: as §1

NCI-H1793 = tested on: NCI-H1793
How it was run: as §1

NCI-H1915 = tested on: NCI-H1915
How it was run: as §1

NCI-H1944 = tested on: NCI-H1944
How it was run: as §1

NCI-H1975 = tested on: NCI-H1975
How it was run: as §1

NCI-H1993 = tested on: NCI-H1993
How it was run: as §1

NCI-H2023 = tested on: NCI-H2023
How it was run: as §1

NCI-H2087 = tested on: NCI-H2087
How it was run: as §1

NCI-H2170 = tested on: NCI-H2170
How it was run: as §1

NCI-H520 = tested on: NCI-H520
How it was run: as §1

SK-MES-1 = tested on: SK-MES-1
How it was run: as §1

SW 1573 = tested on: SW 1573
How it was run: as §1

CN1CCN(CCOc2cc(OC3CCOCC3)c3c(Nc4c(Cl)ccc5c4OCO5)ncnc3c2)CC1 [Saracatinib] + CC1(C)CCC(c2ccc(Cl)cc2)=C(CN2CCN(c3ccc(C(=O)NS(=O)(=O)c4ccc(N[C@H](CCN5CCOCC5)CSc5ccccc5)c(S(=O)(=O)C(F)(F)F)c4)cc3)CC2)C1 [Navitoclax] (partner 0.5 µM)
relative viability (A-427; first compound 0.02 µM): 0.999 | relative viability (A-427; first compound 0.2 µM): 0.854 | relative viability (A-427; first compound 0.6325 µM): 1 | relative viability (A-427; first compound 2 µM): 0.918 | relative viability (COR-L 105; first compound 0.02 µM): 0.795 | relative viability (COR-L 105; first compound 0.2 µM): 0.764 | relative viability (COR-L 105; first compound 0.6325 µM): 0.578 | relative viability (COR-L 105; first compound 2 µM): 0.474 | relative viability (H3255; first compound 0.02 µM): 0.515 | relative viability (H3255; first compound 0.2 µM): 0.393 | relative viability (H3255; first compound 0.6325 µM): 0.302 | relative viability (H3255; first compound 2 µM): 0.0997 | relative viability (HCC-44; first compound 0.02 µM): 1.06 | relative viability (HCC-44; first compound 0.2 µM): 0.829 | relative viability (HCC-44; first compound 0.6325 µM): 1.08 | relative viability (HCC-44; first compound 2 µM): 1.04 | relative viability (HCC-827; first compound 0.02 µM): 0.979 | relative viability (HCC-827; first compound 0.2 µM): 0.808 | relative viability (HCC-827; first compound 0.6325 µM): 0.368 | relative viability (HCC-827; first compound 2 µM): 0.137 | relative viability (LOU-NH91; first compound 0.02 µM): 0.678 | relative viability (LOU-NH91; first compound 0.2 µM): 0.418 | relative viability (LOU-NH91; first compound 0.6325 µM): 0.405 | relative viability (LOU-NH91; first compound 2 µM): 0.361 | relative viability (LXF-289; first compound 0.02 µM): 0.979 | relative viability (LXF-289; first compound 0.2 µM): 0.846 | relative viability (LXF-289; first compound 0.6325 µM): 0.993 | relative viability (LXF-289; first compound 2 µM): 0.964 | relative viability (NCI-H1792; first compound 0.02 µM): 0.635 | relative viability (NCI-H1792; first compound 0.2 µM): 0.489 | relative viability (NCI-H1792; first compound 0.6325 µM): 0.723 | relative viability (NCI-H1792; first compound 2 µM): 0.583 | relative viability (NCI-H1793; first compound 0.02 µM): 0.456 | relative viability (NCI-H1793; first compound 0.2 µM): 0.402 | relative viability (NCI-H1793; first compound 0.6325 µM): 0.401 | relative viability (NCI-H1793; first compound 2 µM): 0.201 | relative viability (NCI-H1915; first compound 0.02 µM): 0.813 | relative viability (NCI-H1915; first compound 0.2 µM): 0.456 | relative viability (NCI-H1915; first compound 0.6325 µM): 0.8 | relative viability (NCI-H1915; first compound 2 µM): 0.757 | relative viability (NCI-H1944; first compound 0.02 µM): 1.14 | relative viability (NCI-H1944; first compound 0.6325 µM): 0.974 | relative viability (NCI-H1944; first compound 2 µM): 0.718 | relative viability (NCI-H1975; first compound 0.02 µM): 1.17 | relative viability (NCI-H1975; first compound 0.6325 µM): 1.06 | relative viability (NCI-H1975; first compound 2 µM): 0.749 | relative viability (NCI-H1993; first compound 0.02 µM): 0.848 | relative viability (NCI-H1993; first compound 0.2 µM): 0.78 | relative viability (NCI-H1993; first compound 2 µM): 0.769 | relative viability (NCI-H2023; first compound 0.02 µM): 1.04 | relative viability (NCI-H2023; first compound 0.2 µM): 0.808 | relative viability (NCI-H2023; first compound 0.6325 µM): 1.02 | relative viability (NCI-H2023; first compound 2 µM): 0.987 | relative viability (NCI-H2087; first compound 0.02 µM): 1.03 | relative viability (NCI-H2087; first compound 0.2 µM): 1.04 | relative viability (NCI-H2087; first compound 0.6325 µM): 1.14 | relative viability (NCI-H2087; first compound 2 µM): 1.05 | relative viability (NCI-H2170; first compound 0.02 µM): 0.57 | relative viability (NCI-H2170; first compound 0.2 µM): 0.564 | relative viability (NCI-H2170; first compound 0.6325 µM): 0.609 | relative viability (NCI-H2170; first compound 2 µM): 0.39 | relative viability (NCI-H520; first compound 0.02 µM): 1.1 | relative viability (NCI-H520; first compound 0.2 µM): 0.993 | relative viability (NCI-H520; first compound 0.6325 µM): 0.753 | relative viability (NCI-H520; first compound 2 µM): 0.583 | relative viability (SK-MES-1; first compound 0.02 µM): 1.24 | relative viability (SK-MES-1; first compound 0.2 µM): 1.16 | relative viability (SK-MES-1; first compound 0.6325 µM): 1.21 | relative viability (SK-MES-1; first compound 2 µM): 0.727 | relative viability (SW 1573; first compound 0.02 µM): 0.958 | relative viability (SW 1573; first compound 0.2 µM): 0.969 | relative viability (SW 1573; first compound 0.6325 µM): 0.919 | relative viability (SW 1573; first compound 2 µM): 0.838
